The text below walks through data of patent US7863465B2, “Antifungal agents” (Merck Sharp & Dohme Corp., priority 2006, dated 2011).

T1 sequence (O13428 1-1897): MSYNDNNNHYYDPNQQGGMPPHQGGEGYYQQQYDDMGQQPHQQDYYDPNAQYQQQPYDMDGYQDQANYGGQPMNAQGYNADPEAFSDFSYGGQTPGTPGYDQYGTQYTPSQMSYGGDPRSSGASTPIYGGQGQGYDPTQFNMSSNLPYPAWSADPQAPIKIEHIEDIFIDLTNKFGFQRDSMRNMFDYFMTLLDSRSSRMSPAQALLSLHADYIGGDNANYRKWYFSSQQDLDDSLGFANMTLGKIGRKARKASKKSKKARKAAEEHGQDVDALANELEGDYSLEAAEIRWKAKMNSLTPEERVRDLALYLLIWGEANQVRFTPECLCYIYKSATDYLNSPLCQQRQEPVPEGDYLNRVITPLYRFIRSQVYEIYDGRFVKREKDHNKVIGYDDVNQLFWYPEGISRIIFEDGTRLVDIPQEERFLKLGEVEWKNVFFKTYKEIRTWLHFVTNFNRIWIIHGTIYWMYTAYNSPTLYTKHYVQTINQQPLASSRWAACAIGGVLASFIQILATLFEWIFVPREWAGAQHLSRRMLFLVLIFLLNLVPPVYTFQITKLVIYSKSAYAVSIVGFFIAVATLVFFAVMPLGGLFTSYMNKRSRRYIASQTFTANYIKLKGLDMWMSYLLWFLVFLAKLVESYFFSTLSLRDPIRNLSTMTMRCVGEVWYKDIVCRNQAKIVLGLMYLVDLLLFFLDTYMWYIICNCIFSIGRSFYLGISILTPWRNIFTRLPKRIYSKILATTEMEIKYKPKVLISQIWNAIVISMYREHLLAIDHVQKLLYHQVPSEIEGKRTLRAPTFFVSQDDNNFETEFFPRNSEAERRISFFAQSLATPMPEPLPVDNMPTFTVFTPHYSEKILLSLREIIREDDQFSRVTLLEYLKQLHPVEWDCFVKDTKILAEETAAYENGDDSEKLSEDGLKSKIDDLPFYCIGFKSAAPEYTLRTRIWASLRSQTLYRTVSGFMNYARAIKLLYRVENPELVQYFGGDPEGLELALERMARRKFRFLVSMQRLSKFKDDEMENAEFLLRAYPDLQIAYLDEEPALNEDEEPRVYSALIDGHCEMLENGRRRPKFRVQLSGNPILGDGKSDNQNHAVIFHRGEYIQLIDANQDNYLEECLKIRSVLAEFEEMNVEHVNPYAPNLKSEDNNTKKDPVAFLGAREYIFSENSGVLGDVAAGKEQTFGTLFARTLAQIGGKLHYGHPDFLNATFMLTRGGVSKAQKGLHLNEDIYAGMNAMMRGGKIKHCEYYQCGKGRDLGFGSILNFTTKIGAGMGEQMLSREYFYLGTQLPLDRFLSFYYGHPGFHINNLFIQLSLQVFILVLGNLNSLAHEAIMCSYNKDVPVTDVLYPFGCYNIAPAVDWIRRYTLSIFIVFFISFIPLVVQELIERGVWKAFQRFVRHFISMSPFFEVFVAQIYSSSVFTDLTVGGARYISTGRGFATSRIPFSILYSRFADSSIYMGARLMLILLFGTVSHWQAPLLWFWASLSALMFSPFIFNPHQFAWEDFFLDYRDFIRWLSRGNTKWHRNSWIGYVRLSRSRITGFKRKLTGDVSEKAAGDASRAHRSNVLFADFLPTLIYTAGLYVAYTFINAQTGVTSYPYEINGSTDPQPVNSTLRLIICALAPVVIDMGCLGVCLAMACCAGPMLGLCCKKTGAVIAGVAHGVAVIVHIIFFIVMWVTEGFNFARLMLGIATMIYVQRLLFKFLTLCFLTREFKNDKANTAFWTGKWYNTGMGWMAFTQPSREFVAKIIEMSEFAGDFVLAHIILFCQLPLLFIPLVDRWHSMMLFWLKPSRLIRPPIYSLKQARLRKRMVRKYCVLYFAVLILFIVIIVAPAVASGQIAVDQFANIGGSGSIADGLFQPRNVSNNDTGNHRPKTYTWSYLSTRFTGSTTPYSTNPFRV
T1 sequence (O42825 whole entry partner): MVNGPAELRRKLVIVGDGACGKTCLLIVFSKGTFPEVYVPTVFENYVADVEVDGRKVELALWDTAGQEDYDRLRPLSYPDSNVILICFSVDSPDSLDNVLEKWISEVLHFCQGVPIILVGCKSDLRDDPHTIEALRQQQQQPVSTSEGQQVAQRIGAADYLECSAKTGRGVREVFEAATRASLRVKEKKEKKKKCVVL

The assay concerns the target T1, glucan synthase (GS) prepared from Candida albicans MY1055 (Candida albicans, UniProt O13428).
T1 construct: Extraction of GS activity from membranes was performed at a protein concentration of 5 mg/mL in extraction buffer; endogenous in cells; host or cells: Candida albicans MY1055 (membranes, detergent extract, product entrapment)
The assay is described as follows: Glucan synthase inhibition (polymerization assay, 96-well, 3H-UDPG incorporation). It counts as biochemical. Conditions: glucan synthase from C. albicans MY1055. The procedure: The in vitro evaluation of glucan synthase inhibitory activity of compounds was measured in a polymerization assay in 96-well format. Each well contained 100 μL of ^3H-UDPG at 0.5 mM (6000 to 8000 dpm/nmol), 50 mM HEPES pH 7.5 (Sigma), 10% w/v glycerol (Sigma), 1.5 mg/mL bovine serum albumin (Sigma A 9647. Lot 44H0190), 25 mM KF (Fisher), 1 mM EDTA (Gibco Ultrapure), 25 μM GTP-γ-S, enzyme sufficient to give 3 to 6 nmoles incorporation during the 60 min incubation at 22° C., and test compound added from wells in 3-fold serial dilutions in 100% DMSO (1 μL/well). The reaction was stopped by the addition of 100 μL of 20% trichloroacetic acid. Plates were chilled for a minimum of 10 min, and precipitated glucan collected by filtration on GF/C plates (Packard Unifilter®-96), washed with 5 cycles of water (about 1 mL/well each cycle) using a Packard Filtermate Harvester. 40 μL/well scintillation fluid (Packard Ultima Gold TM-XR) was added and the sealed plates counted in a Wallac Beta counter in top-counting mode at an efficiency of approximately 40%.
Stock solutions were stored at 10 mg/mL in DMSO at −20° C. For each new enzyme preparation, the initial titration performed started at 1 mg/mL, which was prepared by making a 10-fold dilution in DMSO (5 μL to 50 μL). 40 μL of this stock was placed in column 12 of a round-bottomed 96-well microtiter plate. 40 μL DMSO was added to columns 1 to 11 in the same row and ten 3-fold serial dilutions performed, by transferring 20 μL from column 12 to column 11 etc., with 4 mixings before each transfer. No test compound was transferred to from column 2 to column 1. Duplicate aliquots of 1 μL of all 12 dilutions were then transferred to the side walls of a 96-well Bioblock 1.1 mL plate (Fisherbrand) to create two rows.
The results were tabulated and a standard plate background was subtracted and the net count transpose-pasted into a Prism file, with final compound concentrations used in ng/mL. Graphs were created in Prism software, using the average of two determinations, and using Prism's curve fitting program (sigmoidal dose response non-linear regression).
Routine analysis was performed with glucan synthase (GS) prepared from Candida albicans MY1055 by the following procedure: MY1055 was grown in 10 liters YPD medium (10 g yeast extract, 20 g tryptone, 20 g glucose per liter) with vigorous shaking at 30° C., to early stationary phase. Cells were harvested by centrifugation, the pellet was washed and frozen at −70° C. until breakage. Thawed pellets were shaken with an equal volume of breakage buffer (50 mM HEPES pH 7.4, 10% glycerol, 1 mM EDTA, 1 mM PMSF, 1 mM DTT) and 4 times their weight of 0.5 mm acid washed glass beads for 2 hours at 4° C. Extent of breakage was assessed visually at 40× magnification. For C. parapsilosis strains, shaking was extended to 3 hours to maximize breakage. After low speed centrifugation to remove cell debris, the supernatant was centrifuged at 100,000×g for 60 min. to separate membranes plus ribosomes from cytoplasmic components. Membranes were further washed two additional times with breakage buffer using the same centrifugation conditions and finally suspended in breakage buffer at 25 to 30 mg/mL protein (Biorad) for storage at −70° C. Extraction of GS activity from membranes was performed at a protein concentration of 5 mg/mL in extraction buffer (50 mM NaPO4 pH 7.5, 0.1 M KCl, 0.1M Na citrate, 20% glycerol, 5 μM GTP-γ-S, 1 mM DTT, 1 mM PMSF, 3 μg/mL pepstatin) plus 0.25% W1 by gentle mixing at 4° C. for 60 min, followed by centrifugation at 100,000×g for 60 min. After centrifugation, clear supernatant was removed from a pellet consisting of a hard layer usually with small amounts of gelatinous unextracted membranes above it. […]
Consider `COCC(CO[C@H]1[C@H](OC(C)=O)C[C@@]23COC[C@]1(C)[C@@H]2CC[C@H]1C3=CC(=O)[C@@]2(C)[C@H](C(=O)O)[C@@](C)([C@H](C)C(C)C)CC[C@]12C)N(C)C` (stereo partly drawn) [Example 65, (1S,2R,3R,4aR,6aS,7R,8R,10aR,10bR,12aR)-3-(acetyloxy)-2-(2-dimethylamino-3-methoxypropoxy)-8-[(1R)-1,2-dimethylpropyl]-1,6a,8,10a-tetramethyl-6-oxo-1,3,4,6,6a,7,8,9,10,10a,10b,11,12,12a-tetradecahydro-2H-1,4a-(methanooxymethano)chrysene-7-carboxylic acid], for which the IC50 (in general, the concentration at which inhibition is half-maximal) was 161 nM.

Take `CC(=O)O[C@@H]1C[C@@]23COC[C@@](C)([C@@H]2CC[C@H]2C3=CC(=O)[C@@]3(C)[C@H](C(=O)O)[C@@](C)([C@H](C)C(C)C)CC[C@]23C)[C@H]1OCC(CN)CN(C)C` (stereo partly drawn) [Example 68, (1S,2R,3R,4aR,6aS,7R,8R,10aR,10bR,12aR)-3-(acetyloxy)-2-(2-aminomethyl-3-dimethylaminopropoxy)-8-[(1R)-1,2-dimethylpropyl]-1,6a,8,10a-tetramethyl-6-oxo-1,3,4,6,6a,7,8,9,10,10a,10b,11,12,12a-tetradecahydro-2H-1,4a-(methanooxymethano)chrysene-7-carboxylic acid]: the IC50 is 205 nM.

With `CC(=O)O[C@@H]1C[C@@]23COC[C@](C)([C@@H]2CC[C@H]2C3=CC(=O)[C@@]3(C)[C@H](C(=O)O)[C@@](C)([C@H](C)C(C)C)CC[C@]23C)[C@H]1OCC(C)NCc1ccc(CO)o1` (stereo partly drawn) [Example 71, (1S, 2R, 3R, 4aR, 6aS, 7R, 8R, 10aR, 10bR, 12aR)-3-(acetyloxy)-2-{2-[(5-hydroxymethylfuran-2-ylmethyl)-amino]-propoxy}-8-[(1R)-1,2-dimethylpropyl]-1,6a,8,10a-tetramethyl-6-oxo-1,3,4,6,6a,7,8,9,10,10a,10b,11, 12,12a-tetradecahydro-2H-1,4a-(methanooxymethano)chrysene-7-carboxylic acid], inhibition was half-maximal at 343 nM (IC50).

As to `CCCN(CCC)C(CC)COC1C(OC(C)=O)CC23COCC1(C)C2CCC1C3=CC(=O)C2(C)C(C(=O)O)C(C)(C(C)C(C)C)CCC12C` [Example 81, (1S, 2R, 3R, 4aR, 6aS, 7R, 8R, 10aR, 10bR, 12aR)-3-(acetyloxy)-2-(2-dipropylaminobutoxy)-8-[(1R)-1,2-dimethylpropyl]-1,6a,8, 10a-tetramethyl-6-oxo-1,3,4,6,6a,7,8,9,10,10a, 10b,11,12,12a-tetra decahydro-2H-1,4a-(methanooxymethano) chrysene-7-carboxylic acid], the IC50 was 497 nM.

As to `CC(=O)O[C@@H]1C[C@@]23COC[C@](C)([C@@H]2CC[C@H]2C3=CC(=O)[C@@]3(C)[C@H](C(=O)O)[C@@](C)([C@H](C)C(C)C)CC[C@]23C)[C@H]1OCC(C(C)C)N1CCCCC1` (stereo partly drawn) [Example 89, (1S, 2R, 3R, 4aR, 6aS, 7R, 8R, 10aR, 10bR, 12aR)-3-(acetyloxy)-2-(3-methyl-2-piperidin-1-ylbutoxy)-8-[(1R)-1,2-dimethylpropyl]-1,6a,8, 10a-tetramethyl-6-oxo-1,3,4,6,6a,7,8,9,10,10a, 10b,11,12,12a-tetra decahydro-2H-1,4a-(methanooxymethano) chrysene-7-carboxylic acid], half-maximal inhibition (IC50) required 166 nM.

The compound `CC(=O)O[C@@H]1C[C@@]23COC[C@](C)([C@@H]2CC[C@H]2C3=CC(=O)[C@@]3(C)[C@H](C(=O)O)[C@@](C)([C@H](C)C(C)C)CC[C@]23C)[C@H]1OCCCN` [Example 109, (1S, 2R, 3R, 4aR, 6aS, 7R, 8R, 10aR, 10bR, 12aR)-3-(acetyloxy)-2-(3-aminopropoxy)-8-[(1R)-1,2-dimethylpropyl]-1,6a,8,10a-tetramethyl-6-oxo-1,3,4,6,6a,7,8,9, 10,10a,10b,11,12,12a-tetradeca hydro-2H-1,4a-(methanooxymethano) chrysene-7-carboxylic acid] showed an IC50 of 155 nM.

In the case of `CC(=O)O[C@@H]1C[C@@]23COC[C@@](C)([C@@H]2CC[C@H]2C3=CC(=O)[C@@]3(C)[C@H](C(=O)O)[C@@](C)([C@H](C)C(C)C)CC[C@]23C)[C@H]1OCC(C)(C)N(C)C` [Example 114, (1S,2R,3R,4aR,6aS,7R,8R,10aR,10bR,12aR)-3-(acetyloxy)-2-(2-diamino-2-methylpropoxy)-8-[(1R)-1,2-dimethylpropyl]-1,6a,8,10a-tetramethyl-6-oxo-1,3,4,6,6a,7,8,9,10,10a,10b,11,12,12a-tetradecahydro-2H-1,4a-(methanooxymethano)chrysene-7-carboxylic acid], the 50% inhibitory concentration (IC50) was 80.8 nM.

`CCC(C)(CO[C@H]1[C@H](OC(C)=O)C[C@@]23COC[C@]1(C)[C@@H]2CC[C@H]1C3=CC(=O)[C@@]2(C)[C@H](C(=O)O)[C@@](C)([C@H](C)C(C)C)CC[C@]12C)N(C)C` (stereo partly drawn) [Example 128, (1S, 2R, 3R, 4aR, 6aS, 7R, 8R, 10aR, 10bR, 12aR)-3-(acetyloxy)-2-(2-dimethylamino-2-methylbutyloxy)-8-[(1R)-1,2-dimethylpropyl]-1,6a,8,10a-tetramethyl-6-oxo-1,3,4,6,6a,7,8,9,10, 10a,10b,11,12,12a-tetradecahydro-2H-1,4a-(methanooxymethano)chrysene-7-carboxylic acid]: the IC50 is 91.2 nM.

`CC(=O)O[C@@H]1C[C@@]23COC[C@@](C)([C@@H]2CC[C@H]2C3=CC(=O)[C@@]3(C)[C@H](C(=O)O)[C@@](C)([C@H](C)C(C)C)CC[C@]23C)[C@H]1OC[C@@](C)(N)C(C)C` [Example 148, (1S,2R,3R,4aR,6aS,7R,8R,10aR,10bR,12aR)-3-acetoxy-2-[[(2S)-2-amino-2,3-dimethylbutyl]oxy]-8-[(1R)-1,2-dimethylpropyl]-1,6a,8,10a-tetramethyl-6-oxo-1,3,4,6,6a,7,8,9,10,10a,10b,11,12,12a-tetradecahydro-2H-1,4a-(methanooxymethano)chrysene-7-carboxylic acid]: the IC50 was 20.2 nM.

Compound `CN[C@](C)(CO[C@H]1[C@H](OC(C)=O)C[C@@]23COC[C@@]1(C)[C@@H]2CC[C@H]1C3=CC(=O)[C@@]2(C)[C@H](C(=O)O)[C@@](C)([C@H](C)C(C)C)CC[C@]12C)C(C)C` [Example 149, (1S,2R,3R,4aR,6aS,7R,8R,10aR,10bR,12aR)-3-(acetyloxy)-2-[(2S)-2-methylamino-2,3-dimethylbutyloxy]-8-[(1R)-1,2-dimethylpropyl]-1,6a,8,10a-tetramethyl-6-oxo-1,3,4,6,6a,7,8,9,10,10a,10b,11,12,12a-tetradecahydro-2H-1,4a-(methanooxymethano)chrysene-7-carboxylic acid] gave an IC50 of 19.8 nM.

With `CC(=O)O[C@@H]1C[C@@]23COC[C@@](C)([C@@H]2CC[C@H]2C3=CC(=O)[C@@]3(C)[C@H](C(=O)O)[C@@](C)([C@H](C)C(C)C)CC[C@]23C)[C@H]1OC[C@](C)(C(C)C)N(C)C` [Example 150, (1S,2R,3R,4aR,6aS,7R,8R,10aR,10bR,12aR)-3-(acetyloxy)-2-[(2S)-2-dimethylamino-2,3-dimethylbutyloxy]-8-[(1R)-1,2-dimethylpropyl]-1,6a,8,10a-tetramethyl-6-oxo-1,3,4,6,6a,7,8,9,10,10a,10b,11,12,12a-tetradecahydro-2H-1,4a-(methanooxymethano)chrysene-7-carboxylic acid], half-maximal inhibition (IC50) required 20.8 nM.
